Literature values as cited in patent US9457321B2, “Furanone containing polymer compound with bacteria-adhesion properties” (Stellenbosch University, priority 2012, dated 2016).

Test system: P. aeruginosa, S. aureus, E. coli and Enterococci

## CC1=C(O)C(=O)C(C)O1 (stereo not shown) [DMHF, 2,5-dimethyl-4-hydroxy-3(2H)-furanone]
  antimicrobial efficacy: exceptional antimicrobial efficacy
